Data as given in EP3650451A1, “COMPOUNDS AND THEIR USES AS FLUORESCENT PROBES” (Consejo Superior de Investigaciones Cientificas, priority 2017, dated 2019).

Test system: SCC38 cells
Assay: Labeling in the presence of FCCP (depolarized mitochondrial membrane), flow cytometry
Assay type: cell-based, human
Protocol: • Fig. 1. In vivo labeling of SCC38 cells with compound 4 at different concentrations (50, 100 and 500 nM). Scale bar: 10 µm • Fig. 2. Flow cytometry studies in SCC38 and HeLa cell lines labeled with compound 4 and Mito Tracker® Red. Histograms wherein fluorescence intensity vs number of events is represented for each of the staining times (5, 15 and 30 min) and control (Ctrl), for the SCC38 and HeLa cells and for each of the two markers. • Fig. 3. Absorption (A) and fluorescence (B) spectra, normalized to molar absorption and fluorescence quantum yield of probe 4 in different solvents; chloroform (green), acetone (black), acetonitrile (red), ethanol (blue) and water (gray). • Fig. 4. […] (A) Flow cytometry analysis of SCC38 cells incubated in the presence (+FCCP) or absence (-FCCP) of FCCP 60 µM for 3 h before staining with 20 nM of 4 or 0.5 nm of MitoTracker. The data represent the mean fluorescence intensity (MFI) of the stained cells. (B) Microscopy analysis of SCC38 cells pretreated or not with FCCP before co-staining with 20 nM of 4 and 0.5 nm of MitoTracker. The graphs show the fluorescence profiles of the regions of interest indicated with white lines in the right-hand panels. Scale bars: 10 µm). • Fig. 5. […] The data represent the mean fluorescence intensity (MFI) of the stained cells (upper panels) and representative images of the cytometry profiles (lower panels). • Fig. 7. […] (B) The data represent the mean fluorescence intensity (MFI) of the labeled cells.
The labeling was analyzed by flow cytometry in the presence of carbonyl cyanide-p-(trifluoromethoxy)phenylhydrazone (FCCP), a protonophore used to reduce the mitochondrial membrane potential (ΔΨm) through depolarization of the mitochondrial membrane. […] Indeed, the suppression of dye-mitochondria electrostatic attraction as a passive labeling mechanism reduces the concentration of the dye in the cell organelle and, thus, the probability and extent of the fluorescence deactivation processes, with the ensuing increase in their efficiency. […]

CC1=CC(C)=[N+]2C1=C(c1c(C)cc(C)cc1C)c1c(C)cc(C)n1[B-]21OC(=O)C[C@H](C[N+](C)(C)C)O1 (some centres unmarked) [Compound 4] was tested, and the “labeling of depolarized mitochondria” value (60 µM FCCP for 3 h at 37 °C) was “capable of labeling depolarized mitochondria” and the “mitochondrial fluorescence of cells treated with FCCP” value (60 µM FCCP for 3 h at 37 °C before staining, 20 nM of 4 or 0.5 nM of MitoTracker) was “increase in fluorescence”.
